From US11999727B2 (Tango Therapeutics, Inc., priority 2020, dated 2024)

What was measured:
[1] = system: HAP1 MTAP-deleted cell line; assay: SDMA in-cell western assay, HAP1 MTAP-deleted; type: cell-based; conditions: for IC50: Homo sapiens, HAP1, SDMA in-cell western, HAP1 MTAP-deleted, read-out: HAP 1 MTAP deleted IC50; for MTAP intact/deleted ratio: IC50 ratio HAP1 MTAP-intact / HAP1 MTAP-deleted, SDMA in-cell western
Outline: (§1)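 Readout: in-cell western detection of SDMA. Cells: HAP1 expressing endogenous MTAP and an MTAP-null HAP1 counterpart. Output: IC50.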

[2] = system: HAP1 MTAP-intact cell line; assay: SDMA in-cell western assay, HAP1 MTAP-intact; type: cell-based; conditions: Homo sapiens, HAP1, SDMA in-cell western, HAP1 MTAP-intact; read-out: MTAP HAP1 intact IC50
Outline: as §1

PRMT5 [3] = target: T1, PRMT5 (Homo sapiens, UniProt O14744); assay: PRMT5 biochemical IC50 assay with SAM as cofactor; conditions: PRMT5, SAM as cofactor; read-out: SAM IC50
T1 construct: purchased Viva (custom protein)
T1 sequence (O14744 whole entry): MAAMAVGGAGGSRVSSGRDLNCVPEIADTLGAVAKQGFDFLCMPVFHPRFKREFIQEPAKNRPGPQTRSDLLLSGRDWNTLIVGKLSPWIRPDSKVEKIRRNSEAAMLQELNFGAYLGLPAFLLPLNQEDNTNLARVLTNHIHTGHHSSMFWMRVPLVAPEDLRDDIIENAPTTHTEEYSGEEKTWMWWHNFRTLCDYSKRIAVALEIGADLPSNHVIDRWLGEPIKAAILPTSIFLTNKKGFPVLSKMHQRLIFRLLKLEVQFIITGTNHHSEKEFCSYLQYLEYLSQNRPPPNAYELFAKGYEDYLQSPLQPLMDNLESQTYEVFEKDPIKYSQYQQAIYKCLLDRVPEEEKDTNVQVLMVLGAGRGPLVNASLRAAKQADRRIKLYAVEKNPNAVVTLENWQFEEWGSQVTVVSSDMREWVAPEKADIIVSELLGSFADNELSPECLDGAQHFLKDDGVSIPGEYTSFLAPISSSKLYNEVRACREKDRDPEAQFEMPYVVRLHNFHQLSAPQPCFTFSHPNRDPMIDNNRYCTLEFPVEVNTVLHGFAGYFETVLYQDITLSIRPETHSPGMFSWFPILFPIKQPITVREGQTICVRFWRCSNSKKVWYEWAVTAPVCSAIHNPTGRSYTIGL
T1 sequence (Q9BQA1 whole entry partner): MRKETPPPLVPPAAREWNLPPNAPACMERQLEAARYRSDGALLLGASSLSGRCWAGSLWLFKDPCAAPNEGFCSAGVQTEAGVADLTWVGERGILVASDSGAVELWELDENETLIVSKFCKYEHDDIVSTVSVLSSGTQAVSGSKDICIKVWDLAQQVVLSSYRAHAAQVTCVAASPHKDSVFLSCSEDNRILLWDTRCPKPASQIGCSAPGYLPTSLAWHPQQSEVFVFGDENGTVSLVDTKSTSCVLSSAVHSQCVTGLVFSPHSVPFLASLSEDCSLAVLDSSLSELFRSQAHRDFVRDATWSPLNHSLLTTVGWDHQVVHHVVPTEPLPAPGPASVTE

PRMT5 [4] = target: T1, PRMT5; assay: PRMT5 biochemical IC50 assay with MTA as cofactor; conditions: PRMT5, MTA as cofactor; read-out: MTA IC50
PRMT5 [5] = target: T1, PRMT5; assay: PRMT5 biochemical IC50 assay with no cofactor; conditions: PRMT5, no cofactor; read-out: No Cofactor/rel IC50
Text: Table 1 indicates IC50 values (μM) against PRMT5 for exemplary compounds in the presence of SAM as cofactor, with no cofactor, and with MTA as cofactor, respectively (columns 4-6). […] Ki values can be calculated from the IC50 values as described in the Examples section. As detailed in the Examples section, for the assay performed in the presence of SAM, IC50=Ki×1.5 (Ki=IC50/1.5).

[6] = system: HAP1 MTAP-deleted cell line; assay: Viability assay, MTAP-deleted cell line; type: cell-based; conditions: Homo sapiens, HAP1, viability IC50, MTAP-deleted cell line; read-out: HAP1 MTAP deleted viability
Text: Table 1 additionally indicates IC50 values in a viability assay for the MTAP-deleted cell line (column 10), indicating the effect of treatment with compound on cell survival.

SMILES	IC50 [1] [nM]	MTAP intact/deleted ratio [1]	IC50 [2] [nM]	IC50 (PRMT5 [3]) [nM]	IC50 (PRMT5 [4]) [nM]	IC50 (PRMT5 [5]) [nM]	IC50 [6] [nM]
C[C@@H]1CC[C@@H](c2ccc(N)cn2)N(C(=O)C(=O)Nc2cncc(C(N)=O)c2)C1 (single isomer, unassigned) [Compound 607]	> 1000	B (an IC50 ratio greater than or equal to 3 fold but lower than 10 fold)	> 1000	50 to 500	50 to 500	> 500	> 10000
Cc1cc([C@@H]2CC[C@@H](C)CN2C(=O)C(=O)Nc2cnc(N)c(C)c2)ccn1 (single isomer, unassigned) [Compound 608]	< 100	A (an IC50 ratio greater than or equal to 10 fold)	100 to 1000	< 50	< 50	< 50	< 1000
C[C@@H]1CC[C@@H](c2ccc3[nH]ncc3c2F)N(C(=O)C(=O)Nc2cncc(C(N)=O)c2)C1 (single isomer, unassigned) [Compound 612]	< 100	A (an IC50 ratio greater than or equal to 10 fold)	> 1000	50 to 500	< 50	50 to 500	1000 to 10000
C[C@H]1CC[C@H](c2cc(F)cc(Cl)c2)N(C(=O)C(=O)Nc2cncc(C(N)=O)c2)C1 (single isomer, unassigned) [Compound 615]	< 100	A (an IC50 ratio greater than or equal to 10 fold)	> 1000	50 to 500	< 50	50 to 500	1000 to 10000
Cc1cc(NC(=O)C(=O)N2C[C@H](C)CC[C@H]2c2ccc3sccc3c2)cnc1N (single isomer, unassigned) [Compound 617]	100 to 1000	A (an IC50 ratio greater than or equal to 10 fold)	> 1000	> 500	> 500	> 500	> 10000
COc1ncc(NC(=O)C(=O)N2C[C@@H](C)CC[C@@H]2c2ccc3sccc3c2)cc1C(N)=O (single isomer, unassigned) [Compound 618]	< 100	A (an IC50 ratio greater than or equal to 10 fold)	> 1000	< 50	< 50	< 50	< 1000
Cc1cc(NC(=O)C(=O)N2C[C@@H](C)CC[C@@H]2c2ccc3c(c2)CCC(=O)N3)cnc1C (single isomer, unassigned) [Compound 619]	100 to 1000	A (an IC50 ratio greater than or equal to 10 fold)	> 1000	> 500	> 500	> 500	1000 to 10000
Cc1cc(NC(=O)C(=O)N2C[C@@H](C)CC[C@@H]2c2ccc3[nH]ncc3c2)cnc1C (single isomer, unassigned) [Compound 620]	< 100	A (an IC50 ratio greater than or equal to 10 fold)	100 to 1000	50 to 500	< 50	< 50	< 1000
Cc1cc(NC(=O)C(=O)N2C[C@@H](C)CC[C@@H]2c2ccc(NS(C)(=O)=O)cc2)cnc1C (single isomer, unassigned) [Compound 621]	< 100	A (an IC50 ratio greater than or equal to 10 fold)	100 to 1000	50 to 500	< 50	< 50	1000 to 10000
C[C@H]1CC[C@@H](c2cc(F)cc(Cl)c2)N(C(=O)C(=O)Nc2cncc(C(N)=O)c2)C1 (single isomer, unassigned) [Compound 624]	> 1000	B (an IC50 ratio greater than or equal to 3 fold but lower than 10 fold)	> 1000	> 500	> 500	> 500	> 10000
C[C@@H]1CC[C@H](c2cc(F)cc(Cl)c2)N(C(=O)C(=O)Nc2cncc(C(N)=O)c2)C1 (single isomer, unassigned) [Compound 625]	100 to 1000	A (an IC50 ratio greater than or equal to 10 fold)	> 1000	50 to 500	50 to 500	> 500	> 10000
C[C@H]1CC[C@H](c2ccc(-c3cc[nH]n3)cc2)N(C(=O)C(=O)Nc2cncc(C(N)=O)c2)C1 (single isomer, unassigned) [Compound 626]	< 100	A (an IC50 ratio greater than or equal to 10 fold)	> 1000	50 to 500	50 to 500	50 to 500	1000 to 10000
C[C@@H]1CC[C@@H](c2ccc(-c3cc[nH]n3)cc2)N(C(=O)C(=O)Nc2cncc(C(N)=O)c2)C1 (single isomer, unassigned) [Compound 627]	100 to 1000	A (an IC50 ratio greater than or equal to 10 fold)	> 1000	> 500	> 500	> 500	> 10000
Cc1cc(NC(=O)C(=O)N2C[C@H](C)CC[C@H]2c2ccc(-c3cn[nH]c3)cc2)cnc1N (single isomer, unassigned) [Compound 628]	< 100	A (an IC50 ratio greater than or equal to 10 fold)	100 to 1000	50 to 500	50 to 500	< 50	< 1000
Cc1cc(NC(=O)C(=O)N2C[C@@H](C)CC[C@@H]2c2ccc(-c3cn[nH]c3)cc2)cnc1N (single isomer, unassigned) [Compound 629]	> 1000	B (an IC50 ratio greater than or equal to 3 fold but lower than 10 fold)	> 1000	> 500	> 500	> 500	> 10000
Cc1cc(NC(=O)C(=O)N2C[C@H](C)CC[C@H]2c2ccc(NS(C)(=O)=O)cc2)cnc1C (single isomer, unassigned) [Compound 630]	100 to 1000	A (an IC50 ratio greater than or equal to 10 fold)	> 1000	> 500	> 500	> 500	> 10000
Cc1cc(NC(=O)C(=O)N2C[C@H](C)CC[C@H]2c2ccc3[nH]ncc3c2)cnc1C (single isomer, unassigned) [Compound 631]	> 1000	C (an IC50 ratio of less than 3 fold)	> 1000	> 500	> 500	> 500	> 10000
Cc1cc(NC(=O)C(=O)N2C[C@@H](C)CC[C@@H]2c2ccc3sccc3c2)cnc1N (single isomer, unassigned) [Compound 634]	< 100	A (an IC50 ratio greater than or equal to 10 fold)	100 to 1000	< 50	< 50	< 50	< 1000
C[C@H]1CC[C@H](c2ccc3[nH]ncc3c2F)N(C(=O)C(=O)Nc2cncc(C(N)=O)c2)C1 (single isomer, unassigned) [Compound 637]	100 to 1000	A (an IC50 ratio greater than or equal to 10 fold)	> 1000	> 500	> 500	> 500	> 10000
C[C@H]1CC[C@H](c2cc(Cl)cc(C(F)(F)F)c2)N(C(=O)C(=O)Nc2cncc(C(N)=O)c2)C1 (single isomer, unassigned) [Compound 646]	100 to 1000	A (an IC50 ratio greater than or equal to 10 fold)	> 1000	< 50	< 50	50 to 500	1000 to 10000
Cc1ccc([C@@H]2CC[C@@H](C)CN2C(=O)C(=O)Nc2cncc(C(N)=O)c2)cn1 (single isomer, unassigned) [Compound 654]	100 to 1000	A (an IC50 ratio greater than or equal to 10 fold)	> 1000	50 to 500	< 50	50 to 500	1000 to 10000
C[C@H]1CC[C@H](c2ccc(C(F)(F)F)c(Cl)c2)N(C(=O)C(=O)Nc2cncc(C(N)=O)c2)C1 (single isomer, unassigned) [Compound 655]	100 to 1000	A (an IC50 ratio greater than or equal to 10 fold)	> 1000	< 50	< 50	50 to 500	1000 to 10000
Cc1cc(NC(=O)C(=O)N2C[C@@H](C)CC[C@@H]2c2ccc3c(c2)C(=O)NC3)cnc1N (single isomer, unassigned) [Compound 657]	< 100	A (an IC50 ratio greater than or equal to 10 fold)	100 to 1000	50 to 500	< 50	< 50	< 1000
